# From PMC10303221, “Synthesis, In Silico Studies, and Antioxidant and Tyrosinase Inhibitory Potential of 2-(Substituted Phenyl) Thiazolidine-4-Carboxamide Derivatives” (Pharmaceuticals, 2023)
# Assays:
# [1] = DPPH free radical scavenging assay (antioxidant activity); details: mean ± SD, triplicate; 30 min at 37 °C, absorbance 517 nm
# Source text: The 2,2-Diphenyl-1-picrylhydrazyl (DPPH) radical was used to evaluate the antioxidant potential of the synthesized compounds. Different concentrations of the samples were employed in the subject assay. […] The principle of this assay is related to the conversion of the purple-colored free radical into the pale-yellow-colored reduced form, owing to the action of a proton donating or antioxidant agent. […] Alternatively, compound 1d also acquired hydroxy groups on both mentioned positions. These groups are categorized as strong proton donors which tend to participate in the reduction in DPPH free radicals by donating protons.
# The synthesized compounds were evaluated for their antioxidant activity by measuring their ability to scavenge DPPH free radicals. A previously described protocol was followed for this purpose. An amount of 20 µL of each of the four different dilutions of test samples (200, 66.66, 22.22, and 7.41 µg/mL) was added to 96-well plates containing 180 µL of DPPH solution. The absorbance at 517 nm was determined after incubating for 30 min at 37 °C. Ascorbic acid (1 mg/mL DMSO) was used as the positive control, and the assay was performed in triplicate. The IC50 values were also calculated using the % of inhibitions at different concentrations using Table Curve 2D Windows version 4.07.
# mushroom tyrosinase = mushroom tyrosinase (Agaricus bisporus, UniProt C7FF04); test: Mushroom tyrosinase inhibitory assay (L-DOPA substrate, dopachrome absorbance at 492 nm); format: biochemical; details: compared with kojic acid
# Method: An evaluation of the inhibitory effect on the tyrosinase enzyme was conducted on mushroom tyrosinase.
# A tyrosinase inhibitory assay was conducted with the mushroom tyrosinase enzyme. An amount of 20 µL of mushroom tyrosinase (30 U/mL) was combined with 140 µL (20 mM, pH 6.8) of phosphate buffer. An amount of 20 µL of inhibitor solution was added to a 96-well microplate. Then pre-incubation at room temperature was conducted for 10 min. A solution of L-DOPA (20 μL—0.85 mM) was added. This was followed by the incubation of the plate for 20 min at 25 °C. Using a microplate reader (OPTIMax, Tunable), the absorbance of dopa-chrome was recorded at 492 nm.
# The absorbance of dopa-chrome was measured at 492 nm using a microplate reader (OPTIMax, Tunable, San Jose, CA, USA). […] The IC50 values were used to express the extent of inhibition. The experiments were performed in triplicate for each concentration.
# Chain of mushroom tyrosinase (C7FF04 2-392): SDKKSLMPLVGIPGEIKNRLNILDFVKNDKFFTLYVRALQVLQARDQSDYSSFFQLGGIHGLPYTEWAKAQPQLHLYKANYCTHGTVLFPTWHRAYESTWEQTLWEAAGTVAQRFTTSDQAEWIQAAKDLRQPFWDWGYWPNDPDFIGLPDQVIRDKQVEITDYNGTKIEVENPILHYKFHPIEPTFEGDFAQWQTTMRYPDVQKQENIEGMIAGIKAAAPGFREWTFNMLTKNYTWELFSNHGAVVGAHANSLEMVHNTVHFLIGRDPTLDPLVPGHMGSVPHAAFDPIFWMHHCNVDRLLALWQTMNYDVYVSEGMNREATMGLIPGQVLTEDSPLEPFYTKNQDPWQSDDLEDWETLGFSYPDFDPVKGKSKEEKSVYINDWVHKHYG
structure (smiles),measurement,setting,value
"COc1ccccc1C1NC(C(=O)Nc2ccc(C(=O)O)c(O)c2)CS1 (stereo not drawn) [Compound 2d, 2-Hydroxy-4-[2-(2-methoxyphenyl)-1,3-thiazolidine-4-carbonyl]-aminobenzoic Acid]",melting point,,112 to 113 °C
same,IC50 in the DPPH free radical scavenging assay,[1],18.17 ± 1.0 µg/mL
same,"Tyrosinase inhibitory activity, in words",mushroom tyrosinase,moderate activity
"COc1ccccc1C1NC(C(=O)Nc2ccc(C(=O)O)cc2)CS1 (stereo not drawn) [Compound 2a, 4-[2-(2-Methoxyphenyl)-1,3-thiazolidine-4-carbonyl]-aminobenzoic Acid]",melting point,,116 to 117 °C
same,"Tyrosinase inhibitory activity, in words",mushroom tyrosinase,moderate activity
"COc1ccc(C2NC(C(=O)Nc3ccc(C(=O)O)cc3)CS2)cc1 (stereo not drawn) [Compound 4a, 4-[2-(4-Methoxyphenyl)-1,3-thiazolidine-4-carbonyl]-aminobenzoic Acid]",melting point,,94 to 95 °C
"O=C(O)c1ccc(NC(=O)C2CSC(c3ccc(O)cc3)N2)cc1 (stereo not drawn) [Compound 3a, 4-[2-(4-Hydroxyphenyl)-1,3-thiazolidine-4-carbonyl]-aminobenzoic Acid]",melting point,,164 to 166 °C
"COc1ccc(NC(=O)C2CSC(c3ccc(O)cc3)N2)cc1 (stereo not drawn) [Compound 3e, 2-(4-Hydroxyphenyl)-N-(4-methoxyphenyl)-1,3-thiazolidine-4-carboxamide]",melting point,,115 to 117 °C
same,"Tyrosinase inhibitory activity, in words",mushroom tyrosinase,moderate activity
"O=C(Nc1ccc(O)cc1)C1CSC(c2ccccc2O)N1 (stereo not drawn) [Compound 1c, 2-(2-Hydroxyphenyl)-N-(4-hydroxyphenyl)-1,3-thiazolidine-4-carboxamide]",melting point,,109 to 111 °C
"O=C(O)c1ccc(NC(=O)C2CSC(c3ccccc3O)N2)cc1 (stereo not drawn) [Compound 1a, 4-[2-(2-Hydroxyphenyl)-1,3-thiazolidine-4-carbonyl]-aminobenzoic Acid]",melting point,,135 to 136 °C
"O=C(Nc1ccc(O)cc1)C1CSC(c2ccc(O)cc2)N1 (stereo not drawn) [Compound 3c, N,2-Bis(4-hydroxyphenyl)-1,3-thiazolidine-4-carboxamide]",melting point,,174 to 176 °C
"COc1ccc(NC(=O)C2CSC(c3ccc(OC)cc3)N2)cc1 (stereo not drawn) [Compound 4e, N,2-Bis(4-methoxyphenyl)-1,3-thiazolidine-4-carboxamide]",melting point,,129 to 131 °C
same,"Tyrosinase inhibitory activity, in words",mushroom tyrosinase,moderate activity
"O=C(C1CSC(c2ccccc2O)N1)N1CCOCC1 (stereo not drawn) [Compound 1b, [2-(2-Hydroxyphenyl)-1,3-thiazolidin-4-yl](morpholin-4-yl)-methanone]",melting point,,128 to 129 °C
"O=C1O[C@H]([C@@H](O)CO)C(O)=C1O [ascorbic acid, reference compound]",IC50 in the DPPH free radical scavenging assay,[1],7.83 ± 0.5 µg/mL
"COc1ccc(C2NC(C(=O)Nc3ccc(C(=O)O)c(O)c3)CS2)cc1 (stereo not drawn) [Compound 4d, 2-Hydroxy-4-[2-(4-methoxyphenyl)-1,3-thiazolidine-4-carbonyl]-aminobenzoic Acid]",melting point,,109 to 110 °C
"O=C(O)c1ccc(NC(=O)C2CSC(c3ccccc3O)N2)cc1O (stereo not drawn) [Compound 1d, 2-Hydroxy-4-[2-(2-hydroxyphenyl)-1,3-thiazolidine-4-carbonyl]-aminobenzoic Acid]",melting point,,134 to 135 °C
same,IC50 in the DPPH free radical scavenging assay,[1],18.27 ± 1.1 µg/mL
"O=C(O)c1ccc(NC(=O)C2CSC(c3ccc(O)cc3)N2)cc1O (stereo not drawn) [Compound 3d, 2-Hydroxy-4-[2-(4-hydroxyphenyl)-1,3-thiazolidine-4-carbonyl]-aminobenzoic Acid]",melting point,,130 to 131 °C
"COc1ccc(NC(=O)C2CSC(c3ccccc3O)N2)cc1 (stereo not drawn) [Compound 1e, 2-(2-Hydroxyphenyl)-N-(4-methoxyphenyl)-1,3-thiazolidine-4-carboxamide]",melting point,,83 to 84 °C
